According to patent publication US6727274B2, “Arylsulphonyl substituted-tetrahydro- and hexahydro-carbazoles” (Pharmacia & Upjohn Company, priority 2001, dated 2004):

- melting point: > 275 °C
SMILES: CN[C@@H]1CCc2c(c3cc(S(=O)(=O)c4ccccc4)ccc3n2C)C1.Cl
